Results reported in article PMC4657038, “Large-Scale Computational Screening Identifies First in Class Multitarget Inhibitor of EGFR Kinase and BRD4” (Scientific Reports, 2015).
Values joined by “and” are separate entries in the source; they are usually repeats but may differ in a detail not shown here. Identical values can stand only once. Like-named read-outs stand apart in the source and are kept apart here.

Assays:
BRD4(1) [1] = biological target: T1, BRD4(1) (Homo sapiens, UniProt O60885); experiment: BRD4(1) biochemical alphascreen assay (disruption of BRD4(1) binding to acetylated biotin-histone 4 peptide); set-up: BRD4-BD1 (49–170, BPS Bio #31042) was stored at −80 °C; purchased BPS Bio 31042; conditions: for IC50: alpha screen, average, 9 concentrations in triplicate (n = 3), read-out: IC50 against BRD4(1)
Excerpt: After searching multiple commercial providers for the top 108 compounds, Enamine LLC (http://www.enamine.net/) provided 24 compounds comprising 5 chemical scaffolds including substituted 2-pyrrolidinones, quinazolin-4-amines, thienopyrimidin-4-amines, and imidazolidinones (Supplementary Table 2). […] As illustrated, several compounds have confirmed activity against BRD4(1) and one compound, Z118332870 (2870), is active against BRD4 and EGFR kinase. Compounds that were not confirmed BRD4(1) actives were not tested in the EGFR assay because we were primarily interested in novel dual BRD4 and EGFR inhibitors. To evaluate small molecule BRD4 bromodomain binding, we utilized a biochemical alphascreen assay that measured disruption of BRD4(1) binding to pre-acetylated biotin-histone 4 peptide by proximity detection of the conjugated donor and acceptor beads via transient singlet oxygen. […] To validate results, a counter-screen assay (see Methods for details) was performed to ensure that compounds were not interacting with assay components other than recombinant BRD4(1) (Supplementary Figure 3).
The BRD4(1) alpha screen assay was performed with a pre-acetylated Biotin-Histone 4 Peptide [H4K5/8/12/16(Ac)] 1 – 21 (AnaSpec #64989-025, 0.25 mg). A 200 μM stock was made and stored at −80 °C. BRD4-BD1 (49–170, BPS Bio #31042) was stored at −80 °C at a concentration of 50 μM. All compounds used in assays were kept in a 10 mM stock at −80 °C, with I-BET151 being used as a control. The assay buffer contained 50 mM HEPES, 100 mM NaCl, and 0.1% BSA at a pH of 7.4, and was stored at 4 °C. 10% CHAPS (Sigma C3023) was added to the assay buffer before each experiment and was stored at room temperature.
Before use, assay buffer was equilibrated to room temperature and supplemented with 0.05% CHAPS. 3X His-BRD4-BD1 was diluted in assay buffer to 600 nM with a final concentration of 200 nM in a 12 μl reaction volume. 4 μl per well of 3X His-BRD4-BD1 was added to an OptiPlate-384 (Perkin Elmer #6007290) covered with Top Seal-A Film (Perkin Elmer #6005250) and pulsed at 900 × g. 3X BRD Inhibitors or DMSO vehicle was prepared in Assay Buffer starting at 300 μM and diluting 3X to 46 nM. 4 μl of buffer (positive control), 3X DMSO Vehicle, or 3X BRD Inhibitor (I-BET151 as control) were added to each well, sealed with Top Seal-A film and pulsed at 900 × g. The plate was then incubated at room temperature for 30 minutes. 3X Biotin-H4K4Ac was prepared by diluting stock in Assay Buffer to 600 nM, with a final concentration of 200 nM in a 12 μl reaction volume. 4 μl of Biotin-H4K4Ac was added per well, sealed and pulsed at 900 × g. The plate was then incubated at room temperature for another 30 minutes. AlphaLISA Nickel Chelate Acceptor Beads (Perkin Elmer #1547780, 5 mg/ml, 4 °C) and AlphaScreen Streptavidin Donor Beads (Perkin Elmer #6760002, 5 mg/ml, 4 °C) were prepared at 2.5X by diluting in Assay Buffer to 25 μg/ml with a final concentration of each bead equaling 10 μg/ml in a 20 μl reaction volume. 8 μl per well of Donor and Acceptor beads were added in the dark to each well, sealed, wrapped with foil to protect from light, and pulsed at 900 × g. The plate was then incubated at room temperature for 60 minutes and read on an EnVision instrument using Alpha Mode (680 excitiation/615 emission/read signal). Dose response curves were obtained and interpreted using GraphPad Prism software for curve fitting to obtain IC50 values. […]

ERBB4 = ERBB4 (Homo sapiens, UniProt Q15303); experiment: Kinase activity enzyme profiling, ERBB4; format: biochemical
BRD4(1) [2] = biological target: T1, BRD4(1); experiment: Differential scanning fluorimetry (DSF) with BRD4(1); format: binding; set-up: Bromodomain 1 (BRD4(1)) and Bromodomain 2 (BRD4(2))
Method: The inhibitory activity of compound Z118332870 (2870) against BRD4(1) was assessed by DSF using a StepOnePlus Real-Time PCR system (Applied Biosystems). Purified BRD4(1) (4 μM final concentration; 10 mM HEPES (pH 7.5), 100 mM NaCl, and 1 mM DTT) was assayed, in triplicates, in a 96-well plate. Compound was added to a final concentration of 100 μM and 2% DMSO. Protein Thermal Shift Dye (1:8000; Applied Biosystems) was used as the fluorescent probe and fluorescence was measured using the ROX Reporter channel (620 nm). Protein stability was investigated by programing the thermocycler to increase the temperature from 25 °C to 99 °C using 0.2 °C increments and 10 second incubations per increment. The inflection point of the transition curve/melting temperature (Tm) was calculated using the Boltzmann equation within the Protein Thermal Shift Software (v.1.1) (Applied Biosystems). The ΔTm was calculated by using DMSO control wells as a reference.

ERBB2 = ERBB2 (Homo sapiens, UniProt P04626); experiment: Kinase activity enzyme profiling, ERBB2; format: biochemical
EGFR (ERBB1) = EGFR (ERBB1) (Homo sapiens, UniProt P00533); experiment: EGFR kinase activity enzyme assay (radioisotope filter binding, hotspot); format: biochemical
EGFR (ERBB1), sequence (P00533 25-1210): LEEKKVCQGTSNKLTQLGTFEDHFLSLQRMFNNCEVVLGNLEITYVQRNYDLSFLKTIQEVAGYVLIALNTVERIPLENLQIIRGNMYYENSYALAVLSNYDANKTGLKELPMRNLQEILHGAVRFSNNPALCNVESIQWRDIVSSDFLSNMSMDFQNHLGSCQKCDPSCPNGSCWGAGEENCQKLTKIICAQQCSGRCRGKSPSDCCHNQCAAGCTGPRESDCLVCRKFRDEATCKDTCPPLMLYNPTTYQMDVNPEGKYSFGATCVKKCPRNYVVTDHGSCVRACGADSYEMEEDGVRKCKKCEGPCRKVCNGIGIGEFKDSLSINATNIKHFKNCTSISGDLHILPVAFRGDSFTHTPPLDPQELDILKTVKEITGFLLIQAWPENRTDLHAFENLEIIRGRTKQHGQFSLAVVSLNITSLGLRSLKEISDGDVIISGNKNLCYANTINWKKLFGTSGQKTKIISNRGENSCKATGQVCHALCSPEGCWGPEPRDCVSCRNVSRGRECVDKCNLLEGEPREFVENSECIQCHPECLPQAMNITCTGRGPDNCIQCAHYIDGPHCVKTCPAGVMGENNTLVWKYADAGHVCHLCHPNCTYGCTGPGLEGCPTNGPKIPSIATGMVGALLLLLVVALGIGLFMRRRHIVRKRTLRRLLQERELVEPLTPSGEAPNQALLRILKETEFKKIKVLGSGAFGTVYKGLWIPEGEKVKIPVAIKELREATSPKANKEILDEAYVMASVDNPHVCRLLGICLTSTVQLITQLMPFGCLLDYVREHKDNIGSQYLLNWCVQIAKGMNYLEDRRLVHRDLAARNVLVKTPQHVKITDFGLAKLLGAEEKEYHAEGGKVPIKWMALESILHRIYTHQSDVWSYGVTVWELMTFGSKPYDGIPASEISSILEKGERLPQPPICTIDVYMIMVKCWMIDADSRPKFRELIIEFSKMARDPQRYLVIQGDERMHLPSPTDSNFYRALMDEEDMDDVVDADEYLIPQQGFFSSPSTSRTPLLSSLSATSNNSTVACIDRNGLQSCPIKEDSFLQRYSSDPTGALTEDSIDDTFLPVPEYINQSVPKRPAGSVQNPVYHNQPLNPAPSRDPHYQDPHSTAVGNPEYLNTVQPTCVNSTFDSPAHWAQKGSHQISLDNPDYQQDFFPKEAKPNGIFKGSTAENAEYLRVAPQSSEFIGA
Method: A radioisotope filter binding method was used in the EGFR kinase hotspot assay, performed by the Reaction Biology Corporation, LLC. The base reaction buffer was composed of 20 mM HEPES (pH 7.5); 10 mM MgCl2, 1 mM EGTA, 0.02% Brij35, 0.02 mg/mL BSA, 0.1 mM Na3VO4, 2 mM DTT, and 1% DMSO. The substrate was freshly prepared using the base reaction buffer. Kinase was added into the substrate solution at a concentration of 10 μM and gently mixed. Compounds were then added into the kinase reaction mixture. At this point, the ^33P-ATP was added into the reaction mixture to initiate the reaction. The reaction was incubated for 120 minutes at room temperature. After completion, reactions were spotted onto P81 ion exchange paper (Whatman #3698-915). Filters were then washed extensively in 0.75% Phosphoric acid and a scintillation counter was used to quantify the amount of radioactivity on the filter.

ERBB2, sequence (P04626 23-1255): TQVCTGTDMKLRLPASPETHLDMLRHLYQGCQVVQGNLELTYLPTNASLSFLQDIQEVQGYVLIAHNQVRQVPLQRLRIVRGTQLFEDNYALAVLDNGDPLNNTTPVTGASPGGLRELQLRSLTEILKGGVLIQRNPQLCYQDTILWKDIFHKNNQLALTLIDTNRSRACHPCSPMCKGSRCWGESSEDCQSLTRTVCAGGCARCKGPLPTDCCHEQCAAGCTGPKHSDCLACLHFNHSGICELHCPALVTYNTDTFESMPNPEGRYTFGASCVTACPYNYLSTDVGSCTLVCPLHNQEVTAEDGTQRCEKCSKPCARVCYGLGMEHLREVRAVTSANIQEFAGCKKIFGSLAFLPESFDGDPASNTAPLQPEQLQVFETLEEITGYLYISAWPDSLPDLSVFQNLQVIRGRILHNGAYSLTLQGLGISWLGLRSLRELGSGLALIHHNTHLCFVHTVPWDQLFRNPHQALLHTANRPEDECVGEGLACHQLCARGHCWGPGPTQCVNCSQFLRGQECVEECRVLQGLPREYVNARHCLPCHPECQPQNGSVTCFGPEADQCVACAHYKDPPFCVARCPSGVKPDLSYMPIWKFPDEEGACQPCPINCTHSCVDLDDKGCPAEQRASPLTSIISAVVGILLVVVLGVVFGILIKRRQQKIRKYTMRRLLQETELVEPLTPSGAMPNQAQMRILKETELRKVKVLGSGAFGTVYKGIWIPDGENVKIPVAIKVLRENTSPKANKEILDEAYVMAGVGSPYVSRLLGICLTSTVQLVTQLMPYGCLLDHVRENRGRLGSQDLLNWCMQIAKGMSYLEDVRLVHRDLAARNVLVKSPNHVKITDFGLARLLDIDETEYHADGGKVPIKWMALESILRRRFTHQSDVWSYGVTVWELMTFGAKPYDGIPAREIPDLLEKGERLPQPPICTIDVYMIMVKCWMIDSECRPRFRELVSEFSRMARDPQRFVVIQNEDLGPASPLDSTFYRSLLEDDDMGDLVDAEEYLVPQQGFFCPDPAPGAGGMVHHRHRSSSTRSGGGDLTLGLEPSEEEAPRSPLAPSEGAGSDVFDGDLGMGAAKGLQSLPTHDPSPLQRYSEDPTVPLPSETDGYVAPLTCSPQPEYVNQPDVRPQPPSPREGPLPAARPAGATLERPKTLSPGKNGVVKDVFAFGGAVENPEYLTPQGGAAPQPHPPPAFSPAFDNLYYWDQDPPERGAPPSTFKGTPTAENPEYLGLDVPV
ERBB4, sequence (Q15303 26-1308): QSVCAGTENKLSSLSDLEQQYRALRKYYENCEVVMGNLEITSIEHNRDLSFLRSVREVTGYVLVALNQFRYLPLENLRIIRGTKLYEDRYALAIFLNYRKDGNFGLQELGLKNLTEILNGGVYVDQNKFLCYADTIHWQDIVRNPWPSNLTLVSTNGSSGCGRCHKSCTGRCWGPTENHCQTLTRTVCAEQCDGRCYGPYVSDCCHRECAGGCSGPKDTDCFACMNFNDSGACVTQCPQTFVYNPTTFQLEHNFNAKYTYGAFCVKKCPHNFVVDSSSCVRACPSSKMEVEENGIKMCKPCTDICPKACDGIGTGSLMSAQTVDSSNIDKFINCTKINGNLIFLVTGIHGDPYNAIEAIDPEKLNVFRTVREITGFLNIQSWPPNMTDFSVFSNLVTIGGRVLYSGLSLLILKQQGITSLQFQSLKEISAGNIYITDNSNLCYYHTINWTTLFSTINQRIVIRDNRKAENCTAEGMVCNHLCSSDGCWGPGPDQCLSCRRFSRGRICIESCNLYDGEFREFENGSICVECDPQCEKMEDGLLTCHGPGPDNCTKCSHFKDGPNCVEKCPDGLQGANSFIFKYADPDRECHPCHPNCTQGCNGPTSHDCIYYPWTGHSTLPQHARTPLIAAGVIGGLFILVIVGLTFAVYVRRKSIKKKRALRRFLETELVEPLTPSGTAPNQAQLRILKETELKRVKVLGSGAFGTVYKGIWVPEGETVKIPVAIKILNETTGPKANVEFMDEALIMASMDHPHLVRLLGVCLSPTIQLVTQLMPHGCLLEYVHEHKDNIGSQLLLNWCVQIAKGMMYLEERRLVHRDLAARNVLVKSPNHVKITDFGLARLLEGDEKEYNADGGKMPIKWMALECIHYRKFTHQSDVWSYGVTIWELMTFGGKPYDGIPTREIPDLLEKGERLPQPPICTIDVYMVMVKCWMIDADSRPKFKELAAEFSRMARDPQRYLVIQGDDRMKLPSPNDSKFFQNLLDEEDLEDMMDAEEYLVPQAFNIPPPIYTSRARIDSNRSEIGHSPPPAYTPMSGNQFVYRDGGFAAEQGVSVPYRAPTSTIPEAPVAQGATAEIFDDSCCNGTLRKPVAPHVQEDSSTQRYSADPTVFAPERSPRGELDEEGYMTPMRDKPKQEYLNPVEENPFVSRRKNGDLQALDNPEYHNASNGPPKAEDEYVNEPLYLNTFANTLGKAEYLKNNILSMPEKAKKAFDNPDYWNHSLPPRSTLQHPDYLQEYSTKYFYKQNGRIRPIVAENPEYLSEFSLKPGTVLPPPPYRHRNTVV

c1nc(NCCCN2CCOCC2)c2c3c(sc2n1)CCC3 [compound 0012]
activity in BRD4(1) alphascreen assay (in words) (BRD4(1) [1]): Confirmed active | IC50 (BRD4(1) [1]): 17 µM

COc1cc2ncnc(NCCOc3ccccc3F)c2cc1OC [compound 2870]
selectivity for EGFR over ERBB4 (ERBB4; EGFR vs ERBB4 IC50): 500 fold | IC50 (ERBB4; kinase activity enzyme profiling, read-out: IC50 against ERBB4): 24.2 µM | ΔTm at 100 µM (BRD4(1) [2]; DSF, compound 100 μM, BRD4(1) 4 μM, relative to DMSO): 1.15 °C | IC50 (BRD4(1) [2]; corresponds to ΔTm based on the standard curve, read-out: predicted IC50 from DSF standard curve): 9.1 µM | selectivity for EGFR over ERBB2 (ERBB2; EGFR vs ERBB2 IC50): about 200 fold | IC50 (ERBB2; kinase activity enzyme profiling, read-out: IC50 against ERBB2): 8.73 µM | IC50 (EGFR (ERBB1); kinase enzyme activity assay, read-out: IC50 against EGFR): 0.0442 µM | IC50 (EGFR (ERBB1); radioisotope filter binding assay, substrate concentration 10 μM, n = 3, read-out: IC50 against EGFR kinase): 0.044 µM | activity in BRD4(1) alphascreen assay (in words) (BRD4(1) [1]): Confirmed active | IC50 (BRD4(1) [1]): 9 µM and 9.02 µM

COc1ccc(Br)cc1S(=O)(=O)Nc1cccc(N2CCCC2=O)c1 [compound 8302]
activity in BRD4(1) alphascreen assay (in words) (BRD4(1) [1]): Confirmed active
